Test results as given in patent publication US6444615B1, “Herbicidal imidazolidinetrione and thioxo-imidazolidinediones” (Dow AgroSciences LLC, priority 2000, dated 2002).

Legend:
Format in all cases: in vivo
Conditions in all cases: 1200 g/ha, scale of 0-100, 0 no activity, 100 total control, about two or four weeks after application
[1] = tested on: Nightshade, (black) (Solanum nigrum); experiment: Herbicidal pre-emergence test, Nightshade (black)
Method: (§1) Listed below, a typical planting design for the test, consisting of four monocot weeds, four dicot weeds and one sedge weed. [table] For each compound, evaluation tests were carried out according to the following procedures: For preemergence tests, immediately after planting, the test compound was sprayed directly onto the soil surface. The flats or pots were placed in the greenhouse and then watered. For postemergence tests, seeds were allowed to germinate and grow for 10 to 21 days before application. The test plants were selected for uniformity, size and stage of development. The test plants were then treated with the test compound, returned to the greenhouse and watered. Untreated plants were used as a comparison. The compound to be evaluated was dissolved in an appropriate solvent, usually acetone, or a formulation of the evaluated compounds as described above, was added to the water, and sprayed over the flats or pots using a carrier volume equivalent to 187 or 468 liters per hectare to give a rate of application in grams per hectare (g/ha). About two or four weeks after application of the test compounds, the state of the plant was observed. Each species was evaluated on a scale of 0-100 in which 0 equals no activity and 100 equals total control.

[2] = tested on: Crabgrass (large) (Digitaria sanguinalis); experiment: Herbicidal post-emergence test, Crabgrass (large)
Method: as §1

[3] = tested on: Velvetleaf (Abutilon theophrasti); experiment: Herbicidal pre-emergence test, Velvetleaf
Method: as §1

[4] = tested on: Perennial Ryegrass (Lolium perenne); experiment: Herbicidal pre-emergence test, Perennial Ryegrass
Method: as §1

[5] = tested on: Foxtail, (green) (Setaria viridis); experiment: Herbicidal post-emergence test, Foxtail (green)
Method: as §1

[6] = tested on: Nightshade, (black) (Solanum nigrum); experiment: Herbicidal post-emergence test, Nightshade (black)
Method: as §1

[7] = tested on: Velvetleaf (Abutilon theophrasti); experiment: Herbicidal post-emergence test, Velvetleaf
Method: as §1

[8] = tested on: Barnyardgrass (Echinochloa crusgalli); experiment: Herbicidal post-emergence test, Barnyardgrass
Method: as §1

[9] = tested on: Barnyardgrass (Echinochloa crusgalli); experiment: Herbicidal pre-emergence test, Barnyardgrass
Method: as §1

[10] = tested on: Perennial Ryegrass (Lolium perenne); experiment: Herbicidal post-emergence test, Perennial Ryegrass
Method: as §1

[11] = tested on: Crabgrass (large) (Digitaria sanguinalis); experiment: Herbicidal pre-emergence test, Crabgrass (large)
Method: as §1

[12] = tested on: Smartweed, (pale) (Polygonum lapathifolium); experiment: Herbicidal post-emergence test, Smartweed (pale)
Method: as §1

[13] = tested on: Smartweed, (pale) (Polygonum lapathifolium); experiment: Herbicidal pre-emergence test, Smartweed (pale)
Method: as §1

[14] = tested on: Hairy Beggarticks (Bidens pilosa); experiment: Herbicidal post-emergence test, Hairy Beggarticks
Method: as §1

[15] = tested on: Nutsedge, (yellow) (Cyperus esculentus); experiment: Herbicidal post-emergence test, Nutsedge (yellow)
Method: as §1

[16] = tested on: Nutsedge, (yellow) (Cyperus esculentus); experiment: Herbicidal pre-emergence test, Nutsedge (yellow)
Method: as §1

[17] = tested on: Hairy Beggarticks (Bidens pilosa); experiment: Herbicidal pre-emergence test, Hairy Beggarticks
Method: as §1

[18] = tested on: Foxtail, (green) (Setaria viridis); experiment: Herbicidal pre-emergence test, Foxtail (green)
Method: as §1

SMILES: C#CCOc1cc(N2C(=O)C(=O)N(CCC)C2=O)c(F)cc1Cl [Compound 13]
- Herbicidal Activity NS (pre-emergence) [1]: 100/100
- Herbicidal Activity CRB (post-emergence) [2]: 30
- Herbicidal Activity VEL (pre-emergence) [3]: 100/100
- Herbicidal Activity RYE (pre-emergence) [4]: 60
- Herbicidal Activity FOX (post-emergence) [5]: 60
- Herbicidal Activity NS (post-emergence) [6]: 100/100
- Herbicidal Activity VEL (post-emergence) [7]: 100/100
- Herbicidal Activity BYG (post-emergence) [8]: 80
- Herbicidal Activity BYG (pre-emergence) [9]: 95
- Herbicidal Activity RYE (post-emergence) [10]: 30
- Herbicidal Activity CRB (pre-emergence) [11]: 100
- Herbicidal Activity SMT (post-emergence) [12]: 95
- Herbicidal Activity SMT (pre-emergence) [13]: 100
- Herbicidal Activity BID (post-emergence) [14]: 85
- Herbicidal Activity NUT (post-emergence) [15]: 30
- Herbicidal Activity NUT (pre-emergence) [16]: 0
- Herbicidal Activity BID (pre-emergence) [17]: 100
- Herbicidal Activity FOX (pre-emergence) [18]: 100

SMILES: COC(=O)c1cc(N2C(=O)C(=O)N(C(C)C)C2=O)c(F)cc1Cl [Compound 18, 1-(2-fluoro-4-chloro-5-methoxycarbonylphenyl)-3-isopropyl-2,4,5-imidazolidinetrione]
- Herbicidal Activity NS (pre-emergence) [1]: 100
- Herbicidal Activity CRB (post-emergence) [2]: 30
- Herbicidal Activity VEL (pre-emergence) [3]: 0
- Herbicidal Activity RYE (pre-emergence) [4]: 0/0
- Herbicidal Activity FOX (post-emergence) [5]: 60
- Herbicidal Activity NS (post-emergence) [6]: 95
- Herbicidal Activity VEL (post-emergence) [7]: 95
- Herbicidal Activity BYG (post-emergence) [8]: 40
- Herbicidal Activity BYG (pre-emergence) [9]: 0
- Herbicidal Activity RYE (post-emergence) [10]: 0/0
- Herbicidal Activity CRB (pre-emergence) [11]: 0
- Herbicidal Activity SMT (post-emergence) [12]: 95
- Herbicidal Activity SMT (pre-emergence) [13]: 40
- Herbicidal Activity BID (post-emergence) [14]: 100/100
- Herbicidal Activity NUT (post-emergence) [15]: 0/0
- Herbicidal Activity NUT (pre-emergence) [16]: 0/0
- Herbicidal Activity BID (pre-emergence) [17]: 100/100
- Herbicidal Activity FOX (pre-emergence) [18]: 0

SMILES: C#CCN1C(=O)COc2cc(F)c(N3C(=O)C(=O)N(CC(F)(F)F)C3=O)cc21 [Compound 24]
- Herbicidal Activity NS (pre-emergence) [1]: 0
- Herbicidal Activity CRB (post-emergence) [2]: 0/0
- Herbicidal Activity VEL (pre-emergence) [3]: 0
- Herbicidal Activity RYE (pre-emergence) [4]: 0/0
- Herbicidal Activity FOX (post-emergence) [5]: 0/0
- Herbicidal Activity NS (post-emergence) [6]: 60
- Herbicidal Activity VEL (post-emergence) [7]: 60
- Herbicidal Activity BYG (post-emergence) [8]: 0/0
- Herbicidal Activity BYG (pre-emergence) [9]: 0/0
- Herbicidal Activity RYE (post-emergence) [10]: 0/0
- Herbicidal Activity CRB (pre-emergence) [11]: 0/0
- Herbicidal Activity SMT (post-emergence) [12]: 40
- Herbicidal Activity SMT (pre-emergence) [13]: 0
- Herbicidal Activity BID (post-emergence) [14]: 40
- Herbicidal Activity NUT (post-emergence) [15]: 0/0
- Herbicidal Activity NUT (pre-emergence) [16]: 0/0
- Herbicidal Activity BID (pre-emergence) [17]: 0
- Herbicidal Activity FOX (pre-emergence) [18]: 0/0

SMILES: C=CCOc1cc(N2C(=O)C(=O)N(C)C2=O)c(F)cc1Cl [Compound 15]
- Herbicidal Activity NS (pre-emergence) [1]: 0
- Herbicidal Activity CRB (post-emergence) [2]: 30
- Herbicidal Activity VEL (pre-emergence) [3]: 0
- Herbicidal Activity RYE (pre-emergence) [4]: 0/0
- Herbicidal Activity FOX (post-emergence) [5]: 30
- Herbicidal Activity NS (post-emergence) [6]: 85
- Herbicidal Activity VEL (post-emergence) [7]: 90
- Herbicidal Activity BYG (post-emergence) [8]: 30
- Herbicidal Activity BYG (pre-emergence) [9]: 0
- Herbicidal Activity RYE (post-emergence) [10]: 0/0
- Herbicidal Activity CRB (pre-emergence) [11]: 0
- Herbicidal Activity SMT (post-emergence) [12]: 80
- Herbicidal Activity SMT (pre-emergence) [13]: 0
- Herbicidal Activity BID (post-emergence) [14]: 85
- Herbicidal Activity NUT (post-emergence) [15]: 0/0
- Herbicidal Activity NUT (pre-emergence) [16]: 0/0
- Herbicidal Activity BID (pre-emergence) [17]: 0
- Herbicidal Activity FOX (pre-emergence) [18]: 0
